Patent publication US9376470B2, “Polypeptide having angiogenesis-inducing activity and antibacterial activity, and use thereof for medical purposes” (FunPep Inc., priority 2008, dated 2016)
Read-outs that look alike come from different tables or passages of the source. Peptide text beside a SMILES is read from it.

What was measured:
[1] = system: human vascular endothelial cells and fibroblast cells (co-culture); test: Lumen formation with angiogenesis kit KZ-1000 (section 7); format: cell-based; conditions: for ability to form lumina: 0.5, 2.5 and 10 μg/mL; for The Area of Lumina (relative value, negative control as 100) / The Length of Lumina (relative value, negative control as 100): day 11
Procedure: Using an angiogenesis kit available from KURABO […] LTD. (Product No.: KZ-1000), lumen formation by the polypeptides was evaluated. Vascular endothelial growth factor A (VEGF-A) as a positive control, and polypeptide-free, unstimulated group as a negative control, were used.
Using a special medium for angiogenesis which was attached to the kit, each polypeptide was prepared such that the concentration thereof was respectively 0.5, 2.5 and 10 μg/mL. To a 24-well plate in which cells were plated (the cells were those obtained by co-culturing human vascular endothelial cells and fibroblast cells at an optimum concentration) which was attached to the kit, the special medium for angiogenesis containing each polypeptide was added, and the cells were cultured at 37° C. under 5% CO2. The medium was replaced with a medium containing the same additive on day 4, day 7 and day 9 of culture. On day 11 from the beginning of the culture, staining was performed using a kit for staining lumina (for CD31 antibody staining) according to the following procedure.
The media were removed, and washing was performed with Dulbecco's phosphate buffered saline (PBS(−)). Thereafter, ice-cooled 70% ethanol was added to the plate, and the cells were fixed. Each well was washed with a blocking solution (Dulbecco's phosphate buffered saline (PBS(−)) containing 1% BSA). To each well, 0.5 mL of the primary antibody for CD31 staining (mouse anti-human CD31 antibody) 4000-fold diluted with the blocking solution was added, and then the plate was incubated for 60 minutes at 37° C. After the completion of the incubation, each well was washed totally 3 times with 1 mL of the blocking solution. Then, 0.5 mL of the secondary antibody solution (goat anti-mouse IgG/alkaline phosphatase conjugate) 500-fold diluted with the blocking solution was added to each well. The plate was incubated for 60 minutes at 37° C., and thereafter each well was washed 3 times with 1 mL of distilled water. During that period, 2 tablets of BCIP/NBT were dissolved into distilled water, and the obtained solution was filtered through a filter having a pore size of […] to prepare a substrate solution. To each well, 0.5 mL of the prepared BCIP/NBT substrate solution was added, and the plate was incubated at 37° C. until the lumina turned to deep purple (typically for 5-10 minutes). After the completion of the incubation, each well was washed 3 times with 1 mL of distilled water. After washing, the washing solution was removed by aspiration, and the plate was left to stand and dry naturally. After drying, photographs of each well were taken under a microscope.
Each of the obtained images was quantified using an angiogenesis quantification software. The area and length of formed lumina observed in each visual field were measured on the basis of the scale of an angiogenesis quantification software available from KURABO […] LTD. (angiogenesis quantification software Ver 1.0), and evaluated on the basis of the ratio of the area or length of polypeptide-containing groups relative to the area or length of the negative control group.

[2] = in vitro; format: in vitro ADME, rat; conditions: for half-life: rat serum, 37° C.; for remaining at 0.5 h, 500 μg/mL / remaining at 1 h, 500 μg/mL / remaining at 10 min, 500 μg/mL: rat, serum
Procedure: (§1) Then, the stability of five polypeptides SR-1 to 5 in serum was evaluated.
(§2) In human serum (purchased from KAC Co., Ltd.), or in rat serum obtained by collecting blood from a rat, then leaving the collected blood to stand at room temperature followed by centrifugation, each of the peptides was dissolved so as to attain a final concentration of 500 μg/mL, and the obtained solutions were left to stand at 37° C. After leaving to stand for 10 min or 30 min or 60 min, these solutions were subjected to HPLC chromatogram analysis to detect peaks of the decomposition products, and calculate the ratio of the concentration of the peptides which remained in the solutions relative to the starting concentration. In addition, the half-lives of the peptides in serum were also calculated.
(§3) HPLC chromatogram analysis conditions are as follows.

[3] = format: in vitro ADME; conditions: human serum, 37° C.
Procedure: as §1, §2, §3

[4] = system: Crl:CD (SD) rats, cut wound; test: Effect to heal cut wounds, rat cut-wound model; format: in vivo; conditions: for wound closing tension: 10, 100 and 1000 μg/mL, 50 μL dropwise once a day, measured on day 6; for scars of cut wounds / cicatrization by visual observation, compared with the bFGF formulation: rat cut-wound model, data not shown
Procedure: Next, using rat cut-wound model, the effect of the five polypeptides SR-1 to 5 to heal cut wounds in vivo was evaluated. As described in Tetsuaki Yamaura et al. (Oyo Yakuri (Pharmacometrics) 22, 565-579 (1981)), the rat cut-wound model was produced and the wound closing tension was measured. That is, a cut wound of 30 to 36 mm was made on the back of Crl:CD (SD) rats (male, 7-week old, obtained from Charles River Laboratories Japan, Inc.) using a safety razor, and sutured at 3 points equally spaced. The day when this surgical treatment was applied was regarded as […] (day 0). […] Additions of 50 μL physiological saline were regarded as negative controls (Saline). […] The sutures were removed day 3, and the wound closing tension was measured on day 6.

SMILES | ability to form lumina [1] | The Area of Lumina (relative value, negative control as 100) ([1]; polypeptide 0.5 μg/mL) | The Length of Lumina (relative value, negative control as 100) ([1]; polypeptide 0.5 μg/mL) | The Area of Lumina (relative value, negative control as 100) ([1]; polypeptide 10 μg/mL) | The Length of Lumina (relative value, negative control as 100) ([1]; polypeptide 10 μg/mL) | decomposition in rat serum [2] | half-life [2] [min] | remaining at 0.5 h, 500 μg/mL [2] [%] | remaining at 1 h, 500 μg/mL [2] [%] | half-life [3] [min] | wound closing tension [4] | scars of cut wounds / cicatrization by visual observation, compared with the bFGF formulation [4] | remaining at 10 min, 500 μg/mL [2] [%]
CC[C@H](C)[C@H](NC(=O)[C@H](CC(C)C)NC(=O)[C@H](CCCCN)NC(=O)[C@H](CC(C)C)NC(=O)[C@@H](N)CCSC)C(=O)N[C@@H](Cc1ccccc1)C(=O)N[C@@H](CC(C)C)C(=O)N[C@@H](Cc1c[nH]cn1)C(=O)N[C@@H](CCCNC(=N)N)C(=O)N[C@@H](CC(C)C)C(=O)N[C@@H](CCCCN)C(=O)N[C@@H](CCCNC(=N)N)C(=O)N[C@@H](CCSC)C(=O)N[C@@H](CCCNC(=N)N)C(=O)N[C@@H](CCCCN)C(=O)N[C@@H](CCCNC(=N)N)C(=O)N[C@@H](CC(C)C)C(=O)N[C@@H](CCCCN)C(=O)N[C@@H](CCCNC(=N)N)C(=O)N[C@@H](CCCCN)C(=O)O [SR-1] (H-MLKLIFLHRLKRMRKRLKRK-OH; N-terminus assumed) | high ability to form lumina | 94.6 | 97.4 | 156.6 | 149.5 | completely decomposed | 3 | 0 | 0 | 4 | effect of increasing the wound closing tension | cicatrization was hardly observed | –
CC(C)C[C@H](NC(=O)[C@H](CCCCN)NC(=O)[C@H](CCCNC(=N)N)NC(=O)[C@H](CCCCN)NC(=O)[C@H](CC(C)C)NC(=O)[C@H](CCCNC(=N)N)NC(=O)[C@H](CCCCN)NC(=O)[C@H](CCCNC(=N)N)NC(=O)[C@H](CC(C)C)NC(=O)[C@H](CCCNC(=N)N)NC(=O)[C@H](CCCNC(=N)N)NC(=O)[C@H](CCCCN)NC(=O)[C@H](CC(C)C)NC(=O)[C@H](CCCNC(=N)N)NC(=O)[C@H](Cc1c[nH]cn1)NC(=O)[C@H](CC(C)C)NC(=O)[C@H](Cc1ccccc1)NC(=O)[C@H](CCCNC(=N)N)NC(=O)[C@H](CC(C)C)NC(=O)[C@@H](N)CCC(=O)O)C(=O)N[C@@H](CCCNC(=N)N)C(N)=O [SR-2] (H-ELRFLHRLKRRLRKRLKRKLR-NH2; N-terminus assumed) | high ability to form lumina | 110.7 | 108.9 | 138.0 | 129.9 | 35-55% | 75 | – | 51.7 | 12 | – | cicatrization was hardly observed | 69
CSCC[C@H](NC(=O)[C@H](CCCNC(=N)N)NC(=O)[C@H](CCCCN)NC(=O)[C@H](CC(C)C)NC(=O)[C@H](CCCNC(=N)N)NC(=O)[C@H](Cc1c[nH]cn1)NC(=O)[C@H](CC(C)C)NC(=O)[C@H](Cc1ccccc1)NC(=O)[C@H](CCCNC(=N)N)NC(=O)[C@H](CC(C)C)NC(=O)[C@@H](N)CCC(=O)O)C(=O)N[C@@H](CCCNC(=N)N)C(=O)N[C@@H](CCCCN)C(=O)N[C@@H](CCCNC(=N)N)C(=O)N[C@@H](CC(C)C)C(=O)N[C@@H](CCCCN)C(=O)N[C@@H](CCCNC(=N)N)C(=O)N[C@@H](CCCCN)C(=O)N[C@@H](CC(C)C)C(=O)N[C@@H](CCCNC(=N)N)C(N)=O [SR-3] (H-ELRFLHRLKRMRKRLKRKLR-NH2; N-terminus assumed) | high ability to form lumina | 100.8 | 101.9 | 118.0 | 122.6 | 35-55% | 67 | – | 44.4 | 15 | effect of increasing the wound closing tension | cicatrization was hardly observed | 53
CC[C@H](C)[C@H](NC(=O)[C@H](CC(C)C)NC(=O)[C@@H](N)CCCCN)C(=O)N[C@@H](Cc1ccccc1)C(=O)N[C@@H](CC(C)C)C(=O)N[C@@H](Cc1c[nH]cn1)C(=O)N[C@@H](CCCNC(=N)N)C(=O)N[C@@H](CC(C)C)C(=O)N[C@@H](CCCCN)C(=O)N[C@@H](CCCNC(=N)N)C(=O)N[C@@H](CCSC)C(=O)N[C@@H](CCCNC(=N)N)C(=O)N[C@@H](CCCCN)C(=O)N[C@@H](CCCNC(=N)N)C(=O)N[C@@H](CC(C)C)C(=O)N[C@@H](CCCCN)C(=O)N[C@@H](CCCNC(=N)N)C(=O)N[C@@H](CCCCN)C(=O)N[C@@H](CC(C)C)C(=O)N[C@@H](CCCNC(=N)N)C(N)=O [SR-4] (H-KLIFLHRLKRMRKRLKRKLR-NH2; N-terminus assumed) | – | 90.5 | 97.0 | 96.2 | 96.4 | 35-55% | 95 | 95 | 64.5 | 16 | effect of increasing the wound closing tension | cicatrization was hardly observed | –
CSCC[C@H](NC(=O)[C@H](CCCNC(=N)N)NC(=O)[C@@H](N)CCCCN)C(=O)N[C@@H](CCCNC(=N)N)C(=O)N[C@@H](CCCCN)C(=O)N[C@@H](CCCNC(=N)N)C(=O)N[C@@H](CC(C)C)C(=O)N[C@@H](CCCCN)C(=O)N[C@@H](CCCNC(=N)N)C(=O)N[C@@H](CCCCN)C(=O)N[C@@H](CC(C)C)C(=O)N[C@@H](CCCNC(=N)N)C(=O)N[C@@H](CC(C)C)C(=O)N[C@@H](Cc1c[nH]c2ccccc12)C(=O)N[C@@H](Cc1c[nH]cn1)C(=O)N[C@@H](CCCNC(=N)N)C(=O)N[C@@H](CCCCN)C(=O)N[C@@H](CCCNC(=N)N)C(=O)N[C@@H](Cc1ccc(O)cc1)C(=O)N[C@@H](CCCCN)C(=O)O [SR-5] (H-KRMRKRLKRKLRLWHRKRYK-OH; N-terminus assumed) | – | 103.4 | 106.2 | 107.7 | 106.8 | completely decomposed | 4 | 0 | 0 | 21 | effect of increasing the wound closing tension | – | –
